From PMC11827123 (Journal of medicinal chemistry, 2023)
Each block holds one molecule with its values, some of them ahead of it.

Experiments:
[1] = tested on: RBC; assay: RBC lysis in vitro assay; type: cell-based
[2] = tested on: human red blood cells (RBCs); assay: In vitro hemolysis assay, human RBCs; type: cell-based
[3] = Microsomal; type: in vitro ADME, human; conditions: result in words
[4] = tested on: mouse red blood cells (RBCs); assay: In vitro hemolysis assay, mouse RBCs; type: cell-based
[5] = Mouse pharmacokinetics, oral and intravenous dosing; conditions: mice, PK study with oral and iv dosing
[6] = FeSSIF solubility; type: physicochemical; conditions: result in words
[7] = tested on: MOLT4 cells; assay: Quantitative MS degradation proteomics in MOLT4 cells; conditions: 6 h treatment
[8] = tested on: HepG2 cell line; assay: HepG2 viability; type: cell-based
[9] = tested on: HepG2 cell line; assay: LipidTOX Red phospholipidosis imaging assay; type: cell-based
[10] = tested on: HiBiT-tagged v3 EML4-ALK (WT and clinically relevant mutations); assay: EML4-ALK HiBiT degradation assay, general / clinically relevant mutations; conditions: result in words
[11] = biological target: HiBiT-tagged v3 EML4-ALK G1202R (Homo sapiens, UniProt Q9HC35+Q9UM73, G1202R); assay: EML4-ALK HiBiT degradation assay, G1202R; conditions: Ba/F3, result in words
Sequence of HiBiT-tagged v3 EML4-ALK G1202R (Q9UM73 1058-1620 G1202R limits assumed, one chain of several): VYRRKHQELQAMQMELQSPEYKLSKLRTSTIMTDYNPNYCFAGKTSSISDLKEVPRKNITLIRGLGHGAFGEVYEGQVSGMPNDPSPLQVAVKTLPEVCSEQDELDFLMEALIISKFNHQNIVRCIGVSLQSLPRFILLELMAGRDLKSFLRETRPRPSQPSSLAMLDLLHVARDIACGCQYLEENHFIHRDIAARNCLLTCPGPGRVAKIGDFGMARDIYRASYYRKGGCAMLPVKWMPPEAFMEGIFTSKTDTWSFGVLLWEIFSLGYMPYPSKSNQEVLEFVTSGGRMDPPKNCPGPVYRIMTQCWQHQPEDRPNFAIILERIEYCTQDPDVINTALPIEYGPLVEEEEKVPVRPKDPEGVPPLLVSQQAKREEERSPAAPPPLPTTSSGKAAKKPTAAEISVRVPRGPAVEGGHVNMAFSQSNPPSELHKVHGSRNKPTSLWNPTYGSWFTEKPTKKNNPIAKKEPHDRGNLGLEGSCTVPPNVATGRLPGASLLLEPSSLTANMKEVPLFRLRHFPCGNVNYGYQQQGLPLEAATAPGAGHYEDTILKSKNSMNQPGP

[12] = biological target: HiBiT-tagged v3 EML4-ALK wild-type (WT) (Homo sapiens, UniProt Q9HC35+Q9UM73); assay: EML4-ALK HiBiT degradation assay, WT; conditions: result in words
Sequence of HiBiT-tagged v3 EML4-ALK wild-type (WT) (Q9UM73 1058-1620 limits assumed, one chain of several): as the sequence (Q9UM73 1058-1620 G1202R limits assumed, one chain of several) above, with R145G counted along it

- RBC lysis in vitro [1]: caused RBC lysis
Compound: COc1cc(CCNCCCCCC#Cc2cccc3c2C(=O)N(C2CCC(=O)NC2=O)C3=O)c(C)cc1Nc1ncc(Cl)c(Nc2ccccc2S(=O)(=O)C(C)C)n1 (centres unmarked) [CPD-198, 4-(7-((4-((5-Chloro-4-((2-(isopropylsulfonyl)-phenyl)amino)pyrimidin-2-yl)amino)-5-methoxy-2-methylphenethyl)amino)hept-1-yn-1-yl)-2-(2,6-dioxopiperidin-3-yl)isoindoline-1,3-dione]

- solubility in fed state simulated intestinal fluid (FeSSIF) [6]: good solubility
Compound: COc1cc(CCNCCCCCC#Cc2cccc3c2CN(C2CCC(=O)NC2=O)C3=O)c(C)cc1Nc1ncc(Cl)c(Nc2ccccc2S(=O)(=O)C(C)C)n1 (centres unmarked) [CPD-985, 3-(4-(7-((4-((5-Chloro-4-((2-(isopropylsulfonyl)-phenyl)amino)pyrimidin-2-yl)amino)-5-methoxy-2-methylphenethyl)amino)hept-1-yn-1-yl)-1-oxoisoindolin-2-yl)piperidine-2,6-dione]
- in vitro hemolysis [2]: confirmed
- metabolic / microsomal stability [3]: slightly improved metabolic stability relative to CPD-198
- in vitro hemolysis [4]: confirmed
- hemolysis in vivo [5]: hemolysis was also observed

- RBC lysis in vitro [1]: weak positive
Compound: COc1cc(C2CCN(CCCCCC#Cc3cccc4c3CN(C3CCC(=O)NC3=O)C4=O)CC2)c(C)cc1Nc1ncc(Cl)c(Nc2ccccc2S(=O)(=O)C(C)C)n1 (centres unmarked) [CPD-1108, 3-(4-(7-(4-(4-((5-Chloro-4-((2-(isopropylsulfonyl)phenyl)amino)pyrimidin-2-yl)amino)-5-methoxy-2-methylphenyl)piperidin-1-yl)hept-1-yn-1-yl)-1-oxoisoindolin-2-yl)piperidine-2,6-dione]

- metabolic / microsomal stability [3]: good microsomal stability
- RBC lysis in vitro [1]: RBC lysis was avoided
Compound: COc1cc(C2CCN(CCCC#Cc3cccc4c3CN(C3CCC(=O)NC3=O)C4=O)CC2)c(C)cc1Nc1ncc(Cl)c(Nc2ccccc2S(=O)(=O)C(C)C)n1 (centres unmarked) [CPD-1131]
- proteins degraded to any significant extent [7]: five

- RBC lysis in vitro [1]: did not possess RBC lysis
Compound: COc1cc(C2CCN(CC3CN(c4ccc5c(c4)C(=O)N(C4CCC(=O)NC4=O)C5=O)C3)CC2)c(C)cc1Nc1ncc(Cl)c(Nc2ccccc2S(=O)(=O)C(C)C)n1 (centres unmarked) [CPD-1224, 5-{3-[(4-{4-[(5-Chloro-4-{[2-(propane-2-sulfonyl)phenyl]amino}pyrimidin-2-yl)amino]-5-methoxy-2-methylphenyl}piperidin-1-yl)methyl]azetidin-1-yl}−2-(2,6-dioxopiperidin-3-yl)-2,3-dihydro-1H-isoindole-1,3-dione]
- metabolic / microsomal stability [3]: improved metabolic stability relative to the isoindolinone congener CPD-1793
- cytotoxicity [8]: did not possess these effects
- phospholipidosis (phospholipid accumulation) [9]: did not possess these effects

Compound: COc1cc(C2CCN(CC3CN(c4ccc5c(c4)C(=O)N(C4CCC(=O)N(C)C4=O)C5=O)C3)CC2)c(C)cc1Nc1ncc(Cl)c(Nc2ccccc2S(=O)(=O)C(C)C)n1 (centres unmarked) [CPD-1224NC, 5-(3-((4-(4-((5-Chloro-4-((2-(isopropylsulfonyl)-phenyl)amino)pyrimidin-2-yl)amino)-5-methoxy-2-methylphenyl)piperidin-1-yl)methyl)azetidin-1-yl)-2-(1-methyl-2,6-dioxopiperidin-3-yl)isoindoline-1,3-dione]
- EML4-ALK degradation potency / efficacy (general, clinical mutations) [10]: retains weak degradation activity

- metabolic / microsomal stability [3]: high microsomal stability
Compound: CCc1cc2c(cc1N1CCN(CC3CN(c4ccc5c(c4)C(=O)N(C4CCC(=O)NC4=O)C5=O)C3)CC1)C(C)(C)c1[nH]c3cc(C#N)ccc3c1C2=O (centres unmarked) [CPD-1403, 8-(4-((1-(2-(2,6-Dioxopiperidin-3-yl)-1,3-dioxoisoindolin-5-yl)azetidin-3-yl)methyl)piperazin-1-yl)-9-ethyl-6,6-dimethyl-11-oxo-6,11-dihydro-5H-benzo[b]carbazole-3-carbonitrile]

- degradation activity for G1202R mutation [11]: low degradation activity
- shift between cellular ALK occupancy (NanoBRET) and degradation potency, WT [12]: only a small shift
Compound: Cc1cc(Nc2ncc(Cl)c(Nc3ccccc3S(=O)(=O)C(C)C)n2)c(OC(C)C)cc1C1CCN(CCOCCOCCNC(=O)CNc2cccc3c2C(=O)N(C2CCC(=O)NC2=O)C3=O)CC1 (centres unmarked) [TL13–112]

Compound: Cc1cc(Nc2ncc(Cl)c(Nc3ccccc3S(=O)(=O)C(C)C)n2)c(OC(C)C)cc1C1CCNCC1 [ceritinib, reference compound]
- cytotoxicity [8]: cytotoxicity
- phospholipidosis (phospholipid accumulation) [9]: confirmed the phospholipidosis
